Measurements from patent US20260232681A1, “CRYSTALLINE FORMS OF N-[4-[4-(4-MORPHOLINYL)-7H-PYRROLO[2,3-D]PYRIMIDIN-6- YL]PHENYL]-4-[[3(R)-[(L-OXO-2-PROPEN-L-YL)AMINO]-L-PIPERIDINYL]METHYL]-2-PYRIDINECARBOXAMIDE AS A COVALENT INHIBITOR OF MENIN-MLL INTERACTION” (BIOMEA FUSION, INC., priority 2023, published 2026).
Entries after “also recorded” stand apart in the source; their conditions may differ.

How the values were obtained:
[1] = test system: type 2 diabetes mellitus adult subjects; test: Clinical study in healthy and type 2 diabetes mellitus subjects (SAD, food effect, MAD; Example 111); format: in vivo, human
Method: In Experimental Phase 1 (SAD cohorts), 40 healthy adult subjects were randomized into 4 dose escalating cohorts of 10. In each cohort, subjects were randomized at 7:3 (active and placebo) in sequential order. Each cohort was composed of 2 sentinel subjects randomized at 1:1 (active and placebo), followed by 8 additional subjects randomized at 3:1 (active and placebo). Doses were 100 mg, 200 mg, 400 mg, and 600 mg.
In Experimental Phase 1 (3-period crossover, food effect study), each cohort of 12 healthy adult subjects was randomized at 1:1:1:1:1:1 in a 3-period crossover study with 6 treatment sequences.
In Experimental Phase 2 (MAD cohorts), 1 cohort of 16 healthy adult subjects was randomized at 3:1 (active and placebo), and 7 cohorts of type 2 diabetes mellitus adult subjects were randomized at 5:1 (active and placebo) to obtain safety and efficacy data to identify the potential optimal biological dose (OBD) and a recommended Phase 2 dose (RP2D). Doses were 100 mg, 200 mg, 400 mg, and 600 mg.

[2] = test system: Zucker Diabetic Fatty (ZDF) rats; test: Glycemic control in ZDF rats, 16-day dosing plus two-week washout (Examples 102, 105); format: in vivo, rat
Method: The present examples provides the ability of Compound 10 to restore glycemic control to diabetic Zucker diabetic fatty rats (ZDF rats, genotype ZDF-Lepr^fa/Crl; Charles River). Cornicelli et al., 2005, Charles River.
Control and test compounds were stored at 4° C. and prepared weekly as needed. The vehicle for positive control pioglitazone was 0.25% carboxymethylcellulose and 1% Tween® 80 in reverse osmosis deionized water. The vehicle for Compound 10 was 10% DMSO, 10% Solutol HS 15, and 80% (10% hydroxypropyl-β-cyclodextrin in 50 mM citrate buffer at pH 3.0).
On Day −3, twenty-four ZDF rats (plus eight spare ZDF rats) were measured for body weight and non-fasting glucose. LabDiet 5008 was provided ad libitum throughout the study, except during designated procedures, as was water. In order to minimize the effects of stress on blood glucose and body, all animals including the spares received daily sham doses with phosphate buffered saline pH 7.2 (dose volume 5 mL/kg) via gavage beginning on Study Day −5 to Day −1.
Vehicle, control, and test compound were administered via oral gavage according to the following design on Days 1-16.
On Days −3, 1, 8, and 14 non-fasting blood glucose was measured. On Day 15, an oral glucose tolerance test was administered. The animals were weighed, and the animals were placed in clean cages without food. Access to water was provided throughout the procedure. The animals were fasted for five hours and a blood glucose measurement was determined. The animals were dosed via oral gavage with 2 g/kg glucose (10 mL/kg). Blood glucose was determined via tail snip. The second drop of blood from the animal was placed on a hand-held glucometer (Abbott Alpha Trak) at the following times relative to the glucose dose: zero (just prior to glucose dose), 15, 30, 60, 90, and 120 min. Following the final blood glucose measurement, food was returned to the cages. On Day 17, 4-hour fasting glucose was measured. Serum samples were used to measure insulin by ELISA. Analysis was performed in one to three days of each collections. On Day 17, terminal blood collection was obtained at about 8 mL per animal and measured for blood glucose.
ZDF rats were treated daily with Compound 10, vehicle, or pioglitazone for sixteen days and monitored for an additional two weeks post-treatment until Day 29. STZ rat models were induced through pre-treatment of animals on a high-fat diet with low doses of streptozotocin at Day −14 and Day −7 prior to starting treatment at Day Zero until Day 16. ZDF and STZ rats were monitored for fasting blood glucose levels, oral glucose tolerance test (OGTT), insulin and C-peptide levels, HOMA-IR (Homeostatic Model Assessment of Insulin Resistance), blood lipemic levels, and body weight according to the schematic for each model below. ZDF rats were analyzed for indicated readouts for fifteen days post-treatment for OGTT at Day 29, and serum insulin and C-peptide at Day 31.
ZDF Rat Model—three treatment groups 1. Vehicle; 2. Compound 10 at 175 mg/kg; and 3. Pioglitazone at 30 mg/kg; n=10 per group. Daily dosing zero to sixteen days QD→drug wash out at sixteen to twenty-nine days. Rats were monitored for the following parameters through dosing and wash out phases—body weight, fasting blood sugar, blood insulin, C-peptide, and OGTT.

[3] = test system: MM cell lines; test: MM cell line proliferation (Cell Titer Glo, four days); format: cell-based
Method: Compound A was tested against a THL cell line (VAL), and a DEL cell line (U2932). An expanded panel of DHL cell lines were tested for sensitivity to Compound A. Ex vivo patient samples of THL and MYC-amplified DLBCL were tested with Compound A. Sensitivity of THL and MYC-driven DLBCL in both in vitro and ex vivo models were compared with clinical reversible menin inhibitors. Compound A was tested against a panel of MM cell lines and ex vivo MM patient samples of p53del, 13qdel, and relapsed/refractory cases.
DLBCL cell line TOLEDO was cultured in the presence of Compound A or clinical reversible menin inhibitors for six and fourteen hours. Menin protein expression was reduced up to 60% at 1 μM by Compound A after fourteen hours compared to clinical reversible inhibitors at <20% at similar concentrations. Menin protein expression was measured by the Wes system and analyzed using the Compass software (automated western blotting, Protein Simple). Signal was normalized to GAPDH and referenced to DMSO control (FIG. 171E). DLBCL and MM cell lines were cultured with Compound A, bortezomib (PS-341), or DMSO for four days and cell proliferation was measured by Cell Titer Glo. Ex vivo studies of DLBCL and MM models were conducted by measurement of cell proliferation (Cell Titer Glo) after six days of treatment with Compound A, PS-341, or DMSO control.

[4] = test system: CLL samples isolated from patients; test: Ex vivo CLL patient samples, antileukemic activity; format: cell-based, human; details: CLL ex vivo patient samples, 1 μM exposure
[5] = 16 days treatment, listed as Compound 10

Question: How did the “episodes of symptomatic hypoglycemia” value ([1]; human patients) turn out when `C=CC(=O)N[C@@H]1CCCN(Cc2ccnc(C(=O)Nc3ccc(-c4cc5c(N6CCOCC6)ncnc5[nH]4)cc3)c2)C1` [Compound A, N-[4-[4-(4-morpholinyl)-7H-pyrrolo[2,3-d]pyrimidin-6-yl]phenyl]-4-[[3(R)-[(1-oxo-2-propen-1-yl)amino]-1-piperidinyl]methyl]-2-pyridinecarboxamide] was run?
Answer: Its value is “No episodes”.

Question: What about the “severe or serious TEAEs” value ([1]; human subjects) of the same compound?
Answer: The value was “No severe or serious TEAEs”.

Question: What about the safety profile ([1]; human subjects, 4 weeks of treatment) of the same compound?
Answer: The safety profile was “well-tolerated”.

Question: And the blood lipemic levels [2, 5]?
Answer: The blood lipemic levels was “significantly reduces; also recorded: Significant reductions”.

Question: What about the body weight [2, 5] of the same compound?
Answer: The body weight was “reduces body weight; also recorded: Significant reductions”.

Question: What about the “oral glucose tolerance test, glucose control” value ([2]; Day 29, after fourteen days of no treatment) of the same compound?
Answer: Its value is “significant glucose control”.

Question: What about the “oral glucose tolerance test, glucose control” value ([2]; after fifteen days of treatment) of the same compound?
Answer: Its value is “significant glucose control”.

Question: What about the “serum insulin and C-peptide levels” value ([2]; after two weeks of treatment, p<0.05) of the same compound?
Answer: Its value is “significantly reduced”.

Question: What about the “insulin in the non-fasting and fasting states” value ([2]; compared to vehicle and control) of the same compound?
Answer: Its value is “significant reduction”.

Question: And the “4-hour fasting insulin and glucose” value ([2]; no therapy for two weeks)?
Answer: The value was “increasing insulin and glucose lowering”.

Question: And the “insulin resistance (HOMA-IR)” value ([2]; non-fasting and fasting, listed as Compound 10)?
Answer: The value was “significant reduction; also recorded: increases insulin sensitivity; also recorded: reduced”.

Question: What about the “glucose in the non-fasting and fasting states” value ([2]; oral gavage Days 1-16, compared to vehicle and control) of the same compound?
Answer: The value was “significant reduction”.

Question: What about the C-peptide ([2]; two weeks after therapy) of the same compound?
Answer: The C-peptide was “increasing C-peptide”.

Question: And the cell lethality [3]?
Answer: Its cell lethality is over 99%.

Question: What about the cell lethality [4] of the same compound?
Answer: The cell lethality was over 98%.
